Where “and” joins values, the source holds several entries; their conditions need not be identical. Equal values may be shown once. Where a name gives a salt, the structure may show the parent alone. Read-outs that look alike come from different tables or passages of the source.
Columns and labels:
[1] = molecular target: T1, human 5-HT(2C) (INI) receptor (Homo sapiens, UniProt P28335); assay: Calcium flux assay, stably transfected HEK-293 cells, 5-HT2C; format: cell-based; details: for 5-HT2C % Max ± SEM: percent of maximal activation by 5-HT; for Emax 2C/2A / Emax 2C/2B: Emax ratio
T1 construct: expressed in transfected cells
T1 sequence (P28335 33-458): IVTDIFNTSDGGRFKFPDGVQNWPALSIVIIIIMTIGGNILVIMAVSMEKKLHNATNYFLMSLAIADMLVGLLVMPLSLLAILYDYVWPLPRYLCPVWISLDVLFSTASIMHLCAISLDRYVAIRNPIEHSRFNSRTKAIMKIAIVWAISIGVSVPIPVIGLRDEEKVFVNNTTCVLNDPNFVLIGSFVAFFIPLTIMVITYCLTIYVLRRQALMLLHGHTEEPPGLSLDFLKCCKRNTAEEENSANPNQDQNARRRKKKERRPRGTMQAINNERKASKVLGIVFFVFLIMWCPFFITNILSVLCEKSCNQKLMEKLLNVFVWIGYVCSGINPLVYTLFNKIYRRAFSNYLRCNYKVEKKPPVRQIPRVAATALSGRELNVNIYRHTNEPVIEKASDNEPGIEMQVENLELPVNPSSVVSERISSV

[2] = molecular target: T2, 5-HT(2A) receptor (Homo sapiens, UniProt P28223); assay: cell-based; format: cell-based; design: expressed in transfected cells; details: for 5-HT2A % Max ± SEM: percent of maximal activation by 5-HT, activation at 10 μM for compounds without EC50 value
[3] = molecular target: T3, 5-HT(2B) receptor (Homo sapiens, UniProt P41595); assay: Calcium flux assay, stably transfected HEK-293 cells, 5-HT2B; format: cell-based; design: expressed in transfected cells; details: for 5-HT2B % Max ± SEM: percent of maximal activation by 5-HT, activation at 10 μM for compounds without EC50 value
[4] = molecular target: T3, 5-HT(2B) receptor; assay: 5-HT(2B) antagonism, shift of 5-HT concentration curve in calcium flux experiments, Schild analysis
[5] = molecular target: CYP2C9 (Homo sapiens, UniProt P11712); assay: Recombinant CYP inhibition, CYP2C9; format: in vitro ADME; details: recombinant CYP2C9, probe tolbutamide, substrate tolbutamide, recombinant enzyme, read-out: % Inhibition at 10 μM, CYP 2C9
[6] = molecular target: CYP2D6 (Homo sapiens, UniProt P10635); assay: Recombinant CYP inhibition, CYP2D6; format: in vitro ADME; details: recombinant CYP2D6, probe dextromethorphan, substrate dextromethorphan, recombinant enzyme, read-out: % Inhibition at 10 μM, CYP 2D6
[7] = molecular target: CYP3A4 (Homo sapiens, UniProt P08684); assay: Recombinant CYP inhibition, CYP3A4; format: in vitro ADME; details: recombinant enzyme, read-out: % Inhibition at 10 μM, CYP 3A4
[8] = Stability in liver microsomes, human; format: in vitro ADME; details: NADPH, 37° C.
[9] = Stability in liver microsomes, rat; format: in vitro ADME; details: NADPH, 37° C.
Experimental: Stability in Liver Microsomes. For each sample to be investigated, the following was mixed: microsomes (50 μL, 0.5 mg/mL), MgCl2 solution (50 μL, 50 mM), phosphate buffer (250 μL, 100 mM), water (95 μL), test compound (+)-12 (5 μL, 200 μM). Verapamil was tested as a positive control. The reaction was performed at 37° C. and initiated by the addition of NADPH (50 μL, 10 mM) or, for the negative control, by the addition of water (50 μL). Aliquots of 50 μL were taken form the solution after 0, 15, 30, 45, and 60 minutes and the reaction stopped by the addition of 150 μL cold methanol to the aliquot. The samples were centrifuged (16000 rpm, 10 min). 100 μL supernatant was used for LC-MS-MS investigation. All incubations were performed in duplicate. Separation of the sample components was performed on a Waters ACQUITY UPLC C18 (2.1 mm×50 mm) column, using mobile phase mixtures between 0.1% formic acid in MeCN and 0.1% formic acid in water (elution rate 0.5 mL/min, column temperature 25° C.). […] The in vitro intrinsic clearance (in vitro CLint) was calculated according to: in vitro CLint=(0.693/t1/2)×(volume of incubation (μL)/amount of proteins (mg)).

[10] = tested on: PCP-disrupted PPI in mice; assay: Prepulse inhibition (PPI) animal study, PCP-disrupted PPI; details: PCP 6 mg/kg i.p.
[11] = 10-60 mg/kg, behavioral assay, reference (15); cited from earlier work
[12] = molecular target: T2, 5-HT(2A) receptor; assay: Modulation of 5-HT(2) family receptors, Table 1, 2A Receptor; format: cell-based; details: for 2A Receptor ED50: NA = No activity
[13] = molecular target: T3, 5-HT(2B) receptor; assay: Modulation of 5-HT(2) family receptors, Table 1, 2B Receptor; format: cell-based; details: for 2B Receptor ED50: NA = No activity
[14] = molecular target: T4, 5-HT(2C) receptor (Homo sapiens, UniProt P28335); assay: Modulation of 5-HT(2) family receptors, Table 1, 2C Receptor; format: cell-based
T4 sequence (P28335 33-458): T1 sequence (P28335 33-458)

[15] = 5-HT2C EC50 ± SEM, Table 2, second section
[16] = Table 2, second section, read-out: 5-HT2C EC50 ± SEM
[17] = Table 2, second section, EC50 ratio

T3 sequence (P41595 whole entry): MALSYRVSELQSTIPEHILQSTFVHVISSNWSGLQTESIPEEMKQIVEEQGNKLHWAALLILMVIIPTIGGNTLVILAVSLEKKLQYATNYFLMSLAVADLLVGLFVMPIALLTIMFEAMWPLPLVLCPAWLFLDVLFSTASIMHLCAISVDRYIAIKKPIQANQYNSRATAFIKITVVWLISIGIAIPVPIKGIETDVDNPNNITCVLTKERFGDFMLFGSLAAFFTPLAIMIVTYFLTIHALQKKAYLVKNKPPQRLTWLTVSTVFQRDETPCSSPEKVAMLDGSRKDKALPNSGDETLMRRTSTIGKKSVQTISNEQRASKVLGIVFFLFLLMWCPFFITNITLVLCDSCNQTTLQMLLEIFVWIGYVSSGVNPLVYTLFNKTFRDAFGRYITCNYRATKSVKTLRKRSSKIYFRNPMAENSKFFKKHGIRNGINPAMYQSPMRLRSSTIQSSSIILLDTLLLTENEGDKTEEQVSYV
T2 sequence (P28223 whole entry): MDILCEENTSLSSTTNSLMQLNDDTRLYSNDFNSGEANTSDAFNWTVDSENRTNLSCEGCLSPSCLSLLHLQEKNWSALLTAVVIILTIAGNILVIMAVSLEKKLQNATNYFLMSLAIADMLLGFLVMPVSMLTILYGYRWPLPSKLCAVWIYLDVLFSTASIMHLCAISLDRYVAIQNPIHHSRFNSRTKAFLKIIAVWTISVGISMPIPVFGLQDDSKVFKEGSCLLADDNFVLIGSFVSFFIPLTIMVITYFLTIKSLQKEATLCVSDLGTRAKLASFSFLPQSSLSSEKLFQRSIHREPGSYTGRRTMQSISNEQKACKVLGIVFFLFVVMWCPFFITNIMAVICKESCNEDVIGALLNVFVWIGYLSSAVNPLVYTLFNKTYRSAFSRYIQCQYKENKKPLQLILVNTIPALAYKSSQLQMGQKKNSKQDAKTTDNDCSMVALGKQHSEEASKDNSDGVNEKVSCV
CYP2C9, sequence (P11712 whole entry): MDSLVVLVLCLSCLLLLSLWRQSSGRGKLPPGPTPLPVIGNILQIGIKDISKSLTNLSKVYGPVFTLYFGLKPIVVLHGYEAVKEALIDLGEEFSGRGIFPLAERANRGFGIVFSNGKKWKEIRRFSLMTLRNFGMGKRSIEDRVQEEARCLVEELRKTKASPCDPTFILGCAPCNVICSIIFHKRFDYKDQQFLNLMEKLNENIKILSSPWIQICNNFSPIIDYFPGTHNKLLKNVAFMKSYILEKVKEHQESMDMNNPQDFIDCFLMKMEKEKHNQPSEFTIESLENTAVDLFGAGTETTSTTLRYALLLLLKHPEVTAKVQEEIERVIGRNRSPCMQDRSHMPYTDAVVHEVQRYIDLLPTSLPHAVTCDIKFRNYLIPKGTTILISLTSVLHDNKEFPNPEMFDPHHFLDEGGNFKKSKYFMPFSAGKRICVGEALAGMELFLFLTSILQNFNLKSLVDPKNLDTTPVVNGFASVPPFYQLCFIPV
CYP3A4, sequence (P08684 whole entry): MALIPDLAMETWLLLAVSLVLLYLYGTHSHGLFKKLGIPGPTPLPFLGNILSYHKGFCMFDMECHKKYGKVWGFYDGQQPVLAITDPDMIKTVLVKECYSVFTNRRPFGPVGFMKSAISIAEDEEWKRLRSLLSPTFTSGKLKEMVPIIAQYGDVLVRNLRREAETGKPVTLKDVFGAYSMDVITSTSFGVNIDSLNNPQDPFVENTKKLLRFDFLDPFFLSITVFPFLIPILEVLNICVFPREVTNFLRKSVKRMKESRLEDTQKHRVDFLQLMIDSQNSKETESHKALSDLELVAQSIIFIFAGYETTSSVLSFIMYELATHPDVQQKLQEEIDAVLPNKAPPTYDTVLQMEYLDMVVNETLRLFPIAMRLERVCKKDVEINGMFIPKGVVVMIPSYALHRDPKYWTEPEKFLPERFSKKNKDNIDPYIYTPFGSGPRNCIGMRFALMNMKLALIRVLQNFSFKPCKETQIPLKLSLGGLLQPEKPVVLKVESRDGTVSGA
CYP2D6, sequence (P10635 whole entry): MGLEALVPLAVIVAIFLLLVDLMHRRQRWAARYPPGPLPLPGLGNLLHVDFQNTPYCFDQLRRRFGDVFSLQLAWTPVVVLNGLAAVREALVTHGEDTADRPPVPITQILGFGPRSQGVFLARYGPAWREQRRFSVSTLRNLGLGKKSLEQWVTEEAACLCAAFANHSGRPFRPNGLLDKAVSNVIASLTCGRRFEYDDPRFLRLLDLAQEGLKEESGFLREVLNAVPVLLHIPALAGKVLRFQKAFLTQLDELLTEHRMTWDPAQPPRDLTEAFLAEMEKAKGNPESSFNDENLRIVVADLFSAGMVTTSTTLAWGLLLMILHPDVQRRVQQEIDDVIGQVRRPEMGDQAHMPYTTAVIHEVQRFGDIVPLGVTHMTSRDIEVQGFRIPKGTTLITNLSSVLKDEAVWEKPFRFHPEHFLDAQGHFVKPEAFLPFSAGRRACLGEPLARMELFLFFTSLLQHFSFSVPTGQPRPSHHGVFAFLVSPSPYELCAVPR

Cl.NC[C@@H]1C[C@H]1c1cc(F)ccc1OCC1CC1 (racemic) [Compound 12, trans-[2-(2-Cyclopropylmethyloxy-5-fluorophenyl)cyclopropyl]methylamine Hydrochloride]
EC50 ([1]; EC50 at the 5-HT(2C) receptor, running text b178, functional assays): 254 nM
Selectivity 2A/2C ([1]; Table 2, first section, EC50 ratio): 77
5-HT2C % Max ± SEM ([1]; Table 2, first section): 68% ±
EC50 ([1]; Table 2, first section, read-out: 5-HT2C EC50 ± SEM): 9.9 nM
5-HT2A % Max ± SEM ([2]; Table 2, first section): 11% ±
EC50 ([2]; read-out: 5-HT2A EC50 ± SEM): 761 nM
5-HT2B % Max ± SEM ([3]; Table 2, first section): 2% ±

Cl.NC[C@@H]1C[C@H]1c1cc(O)ccc1OCC1CC1 (racemic) [Compound 18, trans-[2-(2-Cyclopropylmethyloxy-5-hydroxyphenyl)cyclopropyl]methylamine Hydrochloride]
EC50 ([1]; 5-HT2C EC50 ± SEM, Table 2, first section): 19 nM
5-HT2C % Max ± SEM ([1]; Table 2, first section): 68% ±
5-HT2A % Max ± SEM ([2]; Table 2, first section): 7% ±
5-HT2B % Max ± SEM ([3]; Table 2, first section): 6% ±

NC[C@@H]1C[C@H]1c1cc(F)ccc1OCC1CC1 (relative stereo) [Compound 12, trans-[2-(2-Cyclopropylmethyloxy-5-fluorophenyl)cyclopropyl]methylamine Hydrochloride]
Emax 2C/2A ([1]; Table 2, first section): 6.2
Emax 2C/2B ([1]; Table 2, first section): 38
activation of the 5-HT(2A) receptor (in words) ([2]; functional assays): not to activate
activation of the 5-HT(2B) receptor (in words) ([3]; functional assays): not to activate

NC[C@@H]1C[C@H]1c1cc(O)ccc1OCC1CC1 (relative stereo) [Compound 18, trans-[2-(2-Cyclopropylmethyloxy-5-hydroxyphenyl)cyclopropyl]methylamine Hydrochloride]
Emax 2C/2A ([1]; Table 2, first section): 9.4
Emax 2C/2B ([1]; Table 2, first section): 12

NCC1CC1c1cc(O)ccc1OCC1CC1 (single isomer, unassigned; (-)) [(−)-18]
EC50 [1, 15]: 361 nM
Emax 2C/2A ([1]; Table 2, second section): 19
Emax 2C/2B ([1]; Table 2, second section): >>
5-HT2C % Max ± SEM ([1]; Table 2, second section): 51% ±
5-HT2A % Max ± SEM ([2]; Table 2, second section): 3% ±
5-HT2B % Max ± SEM ([3]; Table 2, second section): 0% ±

C[C@H]1CNCCc2ccc(Cl)cc21 [2 (Lorcaserin), Lorcaserin, reference compound]
agonist potency at the 5-HT(2C) receptor (in words) [1]: low nM potency
5-HT2C % Max ± SEM ([1]; Table 2, first section): 99% ±
5-HT2C % Max ± SEM ([1]; Table 2, second section): 94% ±
5-HT2A % Max ± SEM ([2]; Table 2, first section): 24% ±
5-HT2A % Max ± SEM ([2]; Table 2, second section): 31% ±
5-HT2B % Max ± SEM ([3]; Table 2, first section): 93% ±
5-HT2B % Max ± SEM ([3]; Table 2, second section): 86% ±

NCC1CC1c1cc(F)ccc1OCC1CC1 [(+)-12, (+)-trans-(S,S)-[2-(2-Cyclopropylmethyloxy-5-fluorophenyl)cyclopropyl]methylamine Hydrochloride]
EC50 [1, 16]: 21 nM
EC50 ([2]; Table 2, second section (second screening campaign), NA: Emax ≦ 12%, read-out: 5-HT2A EC50 ± SEM): 894 nM
EC50 ([3]; Table 2, second section, NA: Emax ≦ 12%, read-out: 5-HT2B EC50 ± SEM): 289 nM
Kb [4]: 3.16 µM

NC[C@H]1C[C@@H]1c1cc(F)ccc1OCC1CC1 [(+)-12, (+)-trans-(S,S)-[2-(2-Cyclopropylmethyloxy-5-fluorophenyl)cyclopropyl]methylamine Hydrochloride]
Selectivity 2A/2C [1, 17]: 42
Selectivity 2B/2C [1, 17]: 14
Emax 2C/2A ([1]; Table 2, second section): 2.5
Emax 2C/2B ([1]; Table 2, second section): 3.4
5-HT2C % Max ± SEM ([1]; Table 2, second section): 71% ±
inhibition at 20 min, 10 µM [5]: 19.6%
inhibition at 20 min, 10 µM [6]: 27%
inhibition at 5 min, 10 µM ([7]; recombinant CYP3A4, probe midazolam, substrate midazolam): 21.7%
inhibition at 5 min, 10 µM ([7]; recombinant CYP3A4, probe testosterone, substrate testosterone): 25.1%
Microsomal stability (% remaining), human [8]: 90.50%
Microsomal stability (% remaining), rat [9]: 66.03%
5-HT2A % Max ± SEM ([2]; Table 2, second section): 29% ±
5-HT2B % Max ± SEM ([3]; Table 2, second section): 21% ±
normalization of PCP-disrupted PPI ([10]; 5 mg/kg dose level): still effective
normalization of PCP-disrupted PPI ([10]; 10 mg/kg): able to normalize PCP-disrupted PPI

NC[C@H]1C[C@@H]1c1cc(O)ccc1OCC1CC1 [(+)-18, (+)-trans-(S,S)-[2-(2-Cyclopropylmethyloxy-5-hydroxyphenyl)cyclopropyl]methylamine Hydrochloride]
EC50 [1, 15]: 9.3 nM
Selectivity 2A/2C [1, 17]: 40
Emax 2C/2A ([1]; Table 2, second section): 3.9
Emax 2C/2B ([1]; Table 2, second section): 11
5-HT2C % Max ± SEM ([1]; Table 2, second section): 70% ±
EC50 ([2]; 5-HT2A EC50 ± SEM, Table 2, second section (second screening campaign), NA: Emax ≦ 12%): 372 nM
5-HT2A % Max ± SEM ([2]; Table 2, second section): 18% ±
5-HT2B % Max ± SEM ([3]; Table 2, second section): 6% ±
normalization of PCP-disrupted PPI ([10]; 10 mg/kg): able to normalize PCP-disrupted PPI
pA2 (±SEM), Schild analysis ([4]; 5-HT(2B) antagonism against 5-HT, calcium flux, n=3): 5.79±0.07

Cc1cccc(C2CC2CN)c1 (stereo not shown) [Compound 1]
antidepressant-like effects [11]: moderate antidepressant-like effects

NCCc1c[nH]c2ccc(O)cc12 [Compound 5-HT, 5-Hydroxytryptamine, reference compound]
5-HT2A % Max ± SEM ([2]; Table 2, first section): 100%
5-HT2A % Max ± SEM ([2]; Table 2, second section): 100% ±

Cl.NCC1CC1c1ccccc1CCC1CC1 (stereo not shown) [Compound 50]
2A Receptor ED50 [12]: no activity
2B Receptor ED50 [13]: no activity
2C Receptor Emax [14]: 35 and 60

Cl.NCC1CC1c1cc(Br)ccc1CCC1CC1 (stereo not shown) [Compound 51]
2A Receptor ED50 [12]: no activity
2B Receptor ED50 [13]: no activity
2C Receptor Emax [14]: 92

Cc1ccc(CCC2CC2)c(C2CC2CN)c1.Cl (stereo not shown) [Compound 52]
2A Receptor Emax [12]: 47
2B Receptor Emax [13]: 35
2C Receptor Emax [14]: 98

CC(C)c1ccc(CCC2CC2)c(C2CC2CN)c1.Cl (stereo not shown) [Compound 53]
2A Receptor Emax [12]: 92
2B Receptor Emax [13]: 66
2C Receptor Emax [14]: 93

Nc1ccc(S(=O)(=O)Nc2ccnn2-c2ccccc2)cc1 [sulfaphenazole, reference compound]
inhibition at 20 min, 10 µM [5]: 94.7%

trans-[2-(2-cyclopropylmethyloxy-5-fluorophenyl)cyclopropyl]-methylamine hydrochloride [(−)-12]
Emax 2C/2A ([1]; Table 2, second section): >>
Emax 2C/2B ([1]; Table 2, second section): 8.0
5-HT2C % Max ± SEM ([1]; Table 2, second section): 35% ±
EC50 [1, 16]: 918 nM
EC50 ([1]; read-out: EC50 in the 5-HT(2C) assay, running text b178): ~2400 nM
5-HT2A % Max ± SEM ([2]; Table 2, second section): 0% ±
5-HT2B % Max ± SEM ([3]; Table 2, second section): 4% ±
